In patent US6852759B2, “Process for the synthesis of trans-alkenoic acids, use thereof” (priority 2002, dated 2005):
Marks after values point to notes of the source that are not given here.

Experiments:
[1] = tested on: CCl4 induced hepatic injury in rats; assay: Hepatoprotective activity, prophylactic study, CCl4; format: in vivo
[2] = tested on: CCl4, Paracetamol, Galactosamine and alcohol as hepatotoxins; assay: Antihepatotoxicity/hepato-protective activity in vivo, overall comparison with silymarin; details: prophylactic and curative aspects in vivo
[3] = tested on: alcohol induced hepatic damage in rats; assay: Hepatoprotective activity against alcohol induced hepatic damage (serum and hepatic parameters); format: in vivo; details: for Hepatic Protein % change: only change and not protection
[4] = 25 mg/kg p.o. + CCl4, prophylactic
[5] = 50 mg/kg p.o. + CCl4, prophylactic
[6] = 100 mg/kg p.o. + CCl4, prophylactic
[7] = TCA alone 100 mg/kg p.o., no CCl4, prophylactic study

**Q.** Which results are given for `CCCCCCCC/C=C/CCCCCCCCCCCCCC(=O)O` [TCA, t-Tetracos-15-enoic acid]?
**A.** Serum GPT, hepatoprotective activity percent [1, 4]: (46.10 ± 2.70) percent; Serum Triglycerides [1, 4]: 12.11 ± 0.70^NS mg %; Serum Triglycerides, hepatoprotective activity percent [1, 4]: (47.72 ± 11.33) percent; Serum ALP [1, 5]: 35.19 ± 2.90 μmole of p-nitrophenol formed/min/L; Serum ALP, hepatoprotective activity percent [1, 5]: (56.81 ± 9.15) percent; Serum Bilirubin [1, 5]: 0.34 ± 0.01 mg %; Serum Bilirubin, hepatoprotective activity percent [1, 5]: (67.67 ± 2.30) percent; Serum GOT [1, 5]: 543.99 ± 79.93 Units; Serum GOT, hepatoprotective activity percent [1, 5]: (51.82 ± 9.94) percent; Serum GPT [1, 5]: 636.69 ± 44.49 Units; Serum GPT, hepatoprotective activity percent [1, 5]: (65.66 ± 3.02) percent; Serum Triglycerides [1, 5]: 11.89 ± 0.75^NS mg %; Serum ALP [1, 6]: 30.14 ± 2.54 μmole of p-nitrophenol formed/min/L; Serum ALP, hepatoprotective activity percent [1, 6]: (72.92 ± 8.07) percent; Serum Bilirubin [1, 6]: 0.26 ± 0.02 mg %; Serum Bilirubin, hepatoprotective activity percent [1, 6]: (79.04 ± 3.57) percent; Serum GOT [1, 6]: 432.08 ± 37.38 Units; Serum GOT, hepatoprotective activity percent [1, 6]: (65.10 ± 4.50) percent; Serum GPT [1, 6]: 419.72 ± 17.60 Units; Serum GPT, hepatoprotective activity percent [1, 6]: (80.39 ± 1.19) percent; Serum Triglycerides [1, 6]: 11.20 ± 0.68^NS mg %; Serum Triglycerides, hepatoprotective activity percent [1, 6]: (61.75 ± 1.44) percent; Serum ALP [1, 7]: 23.15 ± 2.92 μmole of p-nitrophenol formed/min/L; Serum Bilirubin [1, 7]: 0.17 ± 0.02 mg %; Serum GOT [1, 7]: 110.53 ± 25.55 Units; Serum GPT [1, 7]: 102.66 ± 28.41 Units; Serum Triglycerides [1, 7]: 6.98 ± 0.79 mg %; antihepatotoxicity/hepato-protective activity compared with silymarin [2]: better protection and reversal of biochemical parameters better then those obtained with silymarin; Hepatic G-6-Pase ([3]; 25 mg/kg + Alcohol): 2.19 ± 0.465 Units/g; Hepatic G-6-Pase % Protection ([3]; 25 mg/kg + Alcohol): 73%; Hepatic Protein ([3]; 25 mg/kg + Alcohol): 172 ± 20.430 Mg/g; Hepatic SDII ([3]; 25 mg/kg + Alcohol): 7.79 ± 0.272 Units/G; Hepatic SDII % Protection ([3]; 25 mg/kg + Alcohol): 14%; Hepatic TG ([3]; 25 mg/kg + Alcohol): 14.75 ± 0.60 Mg/g; Hepatic TG % change ([3]; 25 mg/kg + Alcohol): −3.10%; Hepatic Protein % change ([3]; 25 mg/kg + Alcohol): −3.9%; ALF ([3]; 25 mg/kg + Alcohol, serum): 16.00 ± 2.04 U/I; ALF % Protection ([3]; 25 mg/kg + Alcohol, serum): 80.00%; GGT ([3]; 25 mg/kg + Alcohol, serum): 1.90 ± 0.447 IU/I; GGT % Protection ([3]; 25 mg/kg + Alcohol, serum): 63.00%; SGOT ([3]; 25 mg/kg + Alcohol, serum): 310.00 ± 30.36**^β U/I; SGOT % Protection ([3]; 25 mg/kg + Alcohol, serum): 77.29%; SGPT ([3]; 25 mg/kg + Alcohol, serum): 234.00 ± 8.80**^β U/I; SGPT % Protection ([3]; 25 mg/kg + Alcohol, serum): 57.33%; Serum Protein ([3]; 25 mg/kg + Alcohol, serum): 16.90 ± 3.38 G/dl; Serum Protein % Protection ([3]; 25 mg/kg + Alcohol, serum): 44.40%; Hepatic G-6-Pase ([3]; 50 mg/kg + Alcohol): 2.20 ± 2.223 Units/g; Hepatic G-6-Pase % Protection ([3]; 50 mg/kg + Alcohol): 75%; Hepatic Protein ([3]; 50 mg/kg + Alcohol): 174 ± 2.11 Mg/g; Hepatic SDII ([3]; 50 mg/kg + Alcohol): 8.24 ± 0.390 Units/G; Hepatic SDII % Protection ([3]; 50 mg/kg + Alcohol): 43%; Hepatic TG ([3]; 50 mg/kg + Alcohol): 15.44 ± 1.073 Mg/g; Hepatic TG % change ([3]; 50 mg/kg + Alcohol): 1.40%; Hepatic Protein % change ([3]; 50 mg/kg + Alcohol): −2.80%; ALF ([3]; 50 mg/kg + Alcohol, serum): 14.60 ± 2.82***^β U/I; ALF % Protection ([3]; 50 mg/kg + Alcohol, serum): 95.00%; GGT ([3]; 50 mg/kg + Alcohol, serum): 1.54 ± 0.128 IU/I; GGT % Protection ([3]; 50 mg/kg + Alcohol, serum): 90.00%; SGOT ([3]; 50 mg/kg + Alcohol, serum): 295.00 ± 34.39**^β U/I; SGOT % Protection ([3]; 50 mg/kg + Alcohol, serum): 101.09%; SGPT % Protection ([3]; 50 mg/kg + Alcohol, serum): 73.86%; Serum Protein ([3]; 50 mg/kg + Alcohol, serum): 12.60 ± 3.09 G/dl; Serum Protein % Protection ([3]; 50 mg/kg + Alcohol, serum): 7.70%
